Values of other authors in patent US20230320382A1 (DSM IP Assets B.V., priority 2018, published 2023).

[1] = added to the diet of growing pigs

O=C(O)c1ccccc1 [Benzoic acid]
Effect on blood pH [1]: only slightly reduces | Effect on urine pH [1]: markedly acidifies | Site of absorption (ingested benzoic acid): absorbed in the first tract of the small intestine
